Consider 3 molecules from PMC7571068, “Antiproliferative and Pro-Apoptotic Effect of Uvaol in Human Hepatocarcinoma HepG2 Cells by Affecting G0/G1 Cell Cycle Arrest, ROS Production and AKT/PI3K Signaling Pathway” (Molecules, 2020).

The structures appear in SMILES notation. Converted amounts (≈) assume the structure as drawn.

One test deals with HepG2 line. Set-up: method as in PMID 26151733. The note with it: HepG2, 22.11 μg/mL, same phase = G0/G1; cited from earlier work.
For test [1], the system named is HepG2 cells. The arrangement: method as in PMID 26370984. The settings on record: HepG2, 72 h; cited from earlier work.
Test [2] has as its system HepG2 cells. As to the kind of experiment: Muse Annexin V & Dead Cell apoptosis assay. The test is classed as cell-based, human. The settings on record: HepG2, staurosporine 1 μg/mL (positive control). As to the method: (§1) A total of 1.5 × 10^5 cells were seeded per well in 24-well plates for each cell line (quadruplicates for three different populations of each cell line). […] Negative control populations were incubated only with the appropriate culture medium. The samples were analyzed in the Muse^TM Cell Analyzer (Merck-Millipore®, Burlington, MA, USA). Phosphatidylserine (PS) is a phospholipid that is usually found in the inner half of the cytoplasmic membrane, but is outsourced when loss of integrity occurs in the apoptosis process. The method is based on the recognition and binding to the PS exposed by annexin V protein, labeled with a fluorescent substance to detect the interaction and quantify it. We used the Muse^TM Annexin V & Dead Cell kit purchased from Millipore (Billerica, MA, USA), which provides the percentage of viable cells, apoptotic and affected by necrosis.

Another test deals with WRL68 cells. As to the kind of experiment: Muse Annexin V & Dead Cell apoptosis assay. The note with it: WRL68, staurosporine 1 μg/mL (positive control). Format: cell-based, human. As to the method:
as §1

With `CC1(C)CC[C@]2(C(=O)O)CC[C@]3(C)C(=CC[C@@H]4[C@@]5(C)CC[C@H](O)C(C)(C)[C@@H]5CC[C@]43C)[C@@H]2C1` [oleanolic acid], in the test with HepG2 line, the cell cycle arrest result is recorded as “arrest in the same phase of the cycle”.

`CC1(C)CC[C@]2(C(=O)O)CC[C@]3(C)C(=CC[C@@H]4[C@@]5(C)C[C@@H](O)[C@H](O)C(C)(C)[C@@H]5CC[C@]43C)[C@@H]2C1` [maslinic acid]: the IC50 with HepG2 cells [1] was 47 µg/mL (≈ 99.4 µM).

For the molecule `CN[C@@H]1C[C@H]2O[C@@](C)([C@@H]1OC)n1c3ccccc3c3c4c(c5c6ccccc6n2c5c31)C(=O)NC4` [staurosporine, reference compound], the “change in apoptotic cells vs control” value in the test on HepG2 cells [2] is “did not lead to an increase in apoptotic cells”. Further, in the test with WRL68 cells, the “change in number of apoptotic and necrotic cells vs control” value was “equally significant increase”; the “change in number of viable cells vs control” value was “significant decrease”.

In general, IC50 refers to the concentration needed to halve the response being measured.
